Assay results: patent US11684614B2, “Formulations of hydroxypyridonate actinide/lanthanide decorporation agents” (priority 2017, dated 2023)

What was measured:
[1] = Non-GLP 7-day repeat dose beagle dog study, safety findings (SRI No. B677-13); format: in vivo, beagle dogs
Text: Clinical observations that were associated with test article administration included post-dose diarrhea and emesis. Specifically, dogs in the mid- and high-dose groups experienced slight or extreme diarrhea on Day 1 between 1 and 6 hr post-dose. Diarrhea was absent from the lowdose group. […] By Day 2, 8 of the 9 affected dogs were normal, with the exception of one highdose group female that had continued slight diarrhea. Slight to moderate emesis occurred <2 hr post-dose (and oftentimes <1 hr post-dose) in 1-3 dogs from each of the 3,4,3-L1(1,2-HOPO) treatment groups and in none of the vehicle control-treated dogs. Post-dose emesis appeared to be dose-dependent since it occurred in 0, 1, 2, and 3 dogs out of 12 dogs per group in control, low, mid, and high dose groups, respectively. Post-dose emesis is a common response to oral dose administration in dogs, and a single occurrence of it in the low dose group could be […] rather than test article-related and is not considered a dose-limiting event. Slight post-dose emesis in this one male dog was the only finding present in the 37.5 mg/kg lowdose treatment group.
No similar renal histopathology findings were found in any of the other on-study dogs. The observation of hemosiderin without fibrosis in the kidney sections from this one dog is consistent with the renal findings having developed within one to three days prior to the Day 15 necropsy. This dog also had corresponding small increases (1.8- and 1.3-fold, respectively) in the renal function markers BUN and CR on Day 15 relative to pre-test. The timing of the renal findings in this recovery group dog is surprising given the fact that 3,4,3-L1(1,2-HOPO) was administered only on Day 1. Therefore, it is unclear if these renal findings are related specifically to high-dose administration of 3,4,3-L1(1,2-HOPO). There were no toxicologically meaningful histopathology findings in any of the dogs on Day 2 or in any of the other dogs on Day 15. Similar renal findings were also absent from the non-GLP 7-day repeat dose dog study (SRI No. B677-13) where 2 dogs/sex received formulated material at higher doses for 4 days followed by equivalent doses for 3 days and then were sacrificed on Day 8.
An evaluation of the serum levels of iron, unsaturated iron binding capacity, total iron binding capacity, magnesium, and ferritin were included in the clinical pathology analysis during the dog safety studies because 3,4,3-L1(1,2-HOPO) is a potent metal chelator.

CYP1A2 = molecular target: T1, CYP1A2 (Homo sapiens, UniProt P05177); test: CYP inhibition; format: in vitro ADME
T1 sequence (P05177 1-516): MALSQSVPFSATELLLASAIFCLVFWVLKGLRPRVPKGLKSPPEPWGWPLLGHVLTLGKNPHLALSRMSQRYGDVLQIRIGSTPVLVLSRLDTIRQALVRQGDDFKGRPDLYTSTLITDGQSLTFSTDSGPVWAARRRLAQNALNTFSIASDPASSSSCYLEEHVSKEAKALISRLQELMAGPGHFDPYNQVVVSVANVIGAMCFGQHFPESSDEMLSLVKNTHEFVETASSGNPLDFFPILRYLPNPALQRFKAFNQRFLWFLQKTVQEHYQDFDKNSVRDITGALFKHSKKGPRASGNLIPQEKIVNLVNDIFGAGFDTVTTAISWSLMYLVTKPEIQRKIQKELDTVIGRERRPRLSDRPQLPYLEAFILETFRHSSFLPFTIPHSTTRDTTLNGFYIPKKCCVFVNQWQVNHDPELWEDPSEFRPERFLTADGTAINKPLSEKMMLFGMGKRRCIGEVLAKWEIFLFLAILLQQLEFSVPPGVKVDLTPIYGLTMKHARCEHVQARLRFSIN

CYP2C19 = CYP2C19 (Homo sapiens, UniProt P33261); test: CYP inhibition; format: in vitro ADME
Chain of CYP2C19 (P33261 whole entry): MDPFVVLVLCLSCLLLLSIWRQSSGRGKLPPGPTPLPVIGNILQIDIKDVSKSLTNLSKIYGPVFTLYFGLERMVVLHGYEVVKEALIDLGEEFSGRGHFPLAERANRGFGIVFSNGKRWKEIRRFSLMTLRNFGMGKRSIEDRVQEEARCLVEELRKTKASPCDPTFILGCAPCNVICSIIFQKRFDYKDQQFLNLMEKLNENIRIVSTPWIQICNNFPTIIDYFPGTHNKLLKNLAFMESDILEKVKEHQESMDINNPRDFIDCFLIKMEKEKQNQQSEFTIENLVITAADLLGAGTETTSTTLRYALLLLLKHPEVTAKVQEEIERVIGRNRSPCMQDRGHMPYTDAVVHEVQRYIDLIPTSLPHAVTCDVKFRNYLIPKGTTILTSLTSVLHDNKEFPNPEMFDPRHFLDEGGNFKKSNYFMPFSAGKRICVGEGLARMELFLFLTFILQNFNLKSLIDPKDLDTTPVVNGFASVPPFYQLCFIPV

[2] = Plasma protein binding, human; format: in vitro ADME; details: tested at 10 μg/ml
Procedure: Plasma protein binding differed across species; it was greatest in dog (95%), intermediate in human (29%), and lowest in rat (5%) when tested at 10 μg/ml.

[3] = In vitro human liver microsome stability; format: in vitro ADME
[4] = 7-day oral gavage study in Sprague Dawley rats (SRI No. M801-10); format: in vivo
CYP3A4 = CYP3A4 (Homo sapiens, UniProt P08684); test: CYP inhibition; format: in vitro ADME
Chain of CYP3A4 (P08684 whole entry): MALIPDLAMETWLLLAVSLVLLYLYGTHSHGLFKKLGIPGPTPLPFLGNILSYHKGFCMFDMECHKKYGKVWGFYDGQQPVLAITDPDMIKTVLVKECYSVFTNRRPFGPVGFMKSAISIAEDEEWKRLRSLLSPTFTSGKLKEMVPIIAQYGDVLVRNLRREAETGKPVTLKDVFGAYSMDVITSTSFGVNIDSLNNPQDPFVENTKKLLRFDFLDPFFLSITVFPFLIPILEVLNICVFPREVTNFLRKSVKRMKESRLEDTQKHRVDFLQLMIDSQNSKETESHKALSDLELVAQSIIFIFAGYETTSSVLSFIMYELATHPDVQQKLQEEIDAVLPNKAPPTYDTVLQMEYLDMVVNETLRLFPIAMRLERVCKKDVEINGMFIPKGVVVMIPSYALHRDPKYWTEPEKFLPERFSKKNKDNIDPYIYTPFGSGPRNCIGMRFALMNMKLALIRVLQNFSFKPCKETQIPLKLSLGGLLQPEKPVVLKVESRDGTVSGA

[5] = after treatment, 2 dogs/sex, no control group

SMILES: O=C(NCCCN(CCCCN(CCCNC(=O)c1cccc(=O)n1O)C(=O)c1cccc(=O)n1O)C(=O)c1cccc(=O)n1O)c1cccc(=O)n1O [3,4,3-L1(1,2-HOPO)]
- renal findings ([1]; 7-day repeat dose, sacrificed on Day 8): absent
- decrease in unsaturated iron binding capacity [1, 5]: 16-62%
- increase in serum total iron levels compared with pretest [1, 5]: ~2 fold
- emesis and diarrhea ([1]; formulated capsules once daily for 7 days, 75.1, 150, or 300 mg/kg, ~1 hr post-dose): dose dependent, transient emesis and diarrhea
- inhibition of CYP1A2 activity (CYP1A2): did not inhibit
- inhibition of CYP2C19 activity (CYP2C19): did not inhibit
- Plasma protein binding [2]: 29%
- stability in human liver microsomes [3]: relatively stable
- renal findings ([4]; 7 days of oral gavage): no renal findings
- soft stools or diarrhea ([4]; oral gavage 400-1300 mg/kg (532-1732 μmol/kg) for 7 days): not observed
- inhibition of CYP3A4 activity (CYP3A4): did not inhibit
